The text below walks through data of PubChem BioAssay (NCI).

Values joined by “and” are separate entries in the source; they are usually repeats but may differ in a detail not shown here. Identical values can stand only once.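 All cell lines were grown in 96-well plates and treated with compound for 48 hours. At the GI50, growth is halved. TGI denotes the concentration required for complete inhibition of growth.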

Test systems include NCI-H23 lung; NCI/ADR-RES ovarian; NCI-H460 lung; SR leukemia; RPMI-8226 leukemia; HT29 colon; A549 NSCLC; UACC-257 melanoma; SK-MEL-2 melanoma; MOLT-4 leukemia.
What all share (assay): growth of human tumour cells (NCI), 48 h

Regarding `CCOC(=O)c1cc(/C(=N\O)c2cc(OC)c(OC)c(OC)c2)n2cc(C)cc(C)c12`, the GI50 was 2.81 µM with NCI-H23 lung; 2.19 µM in the assay on NCI/ADR-RES ovarian; 2.76 µM in the assay with NCI-H460 lung; 0.56 µM in the assay with SR leukemia; 2.46 µM in the assay on RPMI-8226 leukemia; 3.08 µM in the assay on HT29 colon. Further, in the assay with A549 NSCLC, the GI50 was 3.99 µM. In addition, the TGI was above 100 µM in the assay with NCI-H23 lung; 7.92 µM with NCI/ADR-RES ovarian; 7.64 µM with NCI-H460 lung; 4.57 µM in the assay on SR leukemia; 5.79 µM with RPMI-8226 leukemia; above 100 µM in the assay on HT29 colon. The TGI in the assay with A549 NSCLC is above 100 µM.

Take `COc1ccc2c(c1)CCC1C3(CCCC21C)OCCO3` (stereo not drawn): the TGI is 34.2 µM in the assay with NCI-H23 lung; 46.3 µM with NCI-H460 lung; 45.4 µM in the assay with SR leukemia; 62.1 µM in the assay on UACC-257 melanoma; 23.5 µM in the assay with SK-MEL-2 melanoma; 61.2 µM with RPMI-8226 leukemia. Further, the TGI with MOLT-4 leukemia was 53.5 µM; in the assay with HT29 colon, 33.5 µM; in the assay with A549 NSCLC, 69.7 µM.

As for `Cc1ccc(/C(=C/C=C(C#N)C#N)Sc2ccc(Cl)cc2)cc1`, the GI50 in the assay on NCI-H23 lung is 9.54 µM; in the assay with NCI/ADR-RES ovarian it was 5.99 µM; in the assay with NCI-H460 lung it was 9.24 µM; in the assay with SR leukemia, 2.32 µM; with UACC-257 melanoma it was 9.04 µM; with RPMI-8226 leukemia it was 2.34 µM. For the same compound, the GI50 is 1.85 µM with MOLT-4 leukemia and 12.4 µM with A549 NSCLC. Also, the TGI amounted to 23.4 µM in the assay with NCI-H23 lung; 19.9 µM in the assay with NCI/ADR-RES ovarian; 29.7 µM in the assay with NCI-H460 lung; 6.14 µM in the assay with SR leukemia; 22 µM with UACC-257 melanoma; 7.96 µM in the assay on RPMI-8226 leukemia. The results for the TGI in the assay on MOLT-4 leukemia and with A549 NSCLC were 14.3 µM and 28 µM, respectively.

For the compound `CC1=C2C(=O)O[C@@H](c3ccoc3)[C@]2(C)CCC1`, the TGI in the assay on NCI-H23 lung, in the assay on NCI-H460 lung, with SR leukemia, with UACC-257 melanoma, in the assay with SK-MEL-2 melanoma and in the assay on RPMI-8226 leukemia was above 100 µM in each case. The TGI with MOLT-4 leukemia, with HT29 colon and in the assay with A549 NSCLC was above 100 µM in each case.

For `CCOC(=O)Sc1ncnc2nc[nH]c12`, the GI50 is 3.93 µM with NCI-H23 lung; 3.47 µM in the assay on NCI/ADR-RES ovarian; 5.75 µM in the assay with NCI-H460 lung; 0.358 µM in the assay on SR leukemia; 7.2 µM in the assay on UACC-257 melanoma; 6.15 µM in the assay on SK-MEL-2 melanoma. In addition, the GI50 is 1.58 µM in the assay with MOLT-4 leukemia, 3.07 µM with HT29 colon and 25.9 µM in the assay with A549 NSCLC. Also, the TGI in the assay with NCI-H23 lung is above 100 µM; in the assay on NCI/ADR-RES ovarian it was above 100 µM; in the assay on NCI-H460 lung it was above 100 µM; in the assay with SR leukemia, 6.35 µM; in the assay on UACC-257 melanoma, above 100 µM; in the assay on SK-MEL-2 melanoma it was above 100 µM. Further, the values for the TGI in the assay with MOLT-4 leukemia, with HT29 colon and in the assay with A549 NSCLC were 6.57 µM, above 100 µM and above 100 µM, respectively.

As for `COc1ccc2c(c1)C(=O)c1c-2n(CCCn2ccnc2)c(=O)c2ccccc12`, the GI50 in the assay with NCI-H23 lung was 0.284 µM; with NCI/ADR-RES ovarian, 0.634 µM; with NCI-H460 lung it was 0.128 µM; in the assay on SR leukemia it was 0.0765 µM; in the assay with UACC-257 melanoma, 1.14 µM; in the assay with SK-MEL-2 melanoma, 0.843 µM. Moreover, the GI50 was 0.223 µM in the assay with RPMI-8226 leukemia, 0.136 µM with MOLT-4 leukemia and 0.511 µM in the assay on A549 NSCLC. Besides, the TGI is 7.86 µM with NCI-H23 lung; 5.92 µM with NCI/ADR-RES ovarian; 1.46 µM in the assay with NCI-H460 lung; 7.81 µM in the assay with SR leukemia; 10.9 µM with UACC-257 melanoma; 8.82 µM in the assay on SK-MEL-2 melanoma. Moreover, the TGI with RPMI-8226 leukemia was 2 µM; in the assay with MOLT-4 leukemia, above 100 µM; in the assay on A549 NSCLC, 4.66 µM.

Turning to `Cc1ccc(S(=O)(=O)n2c(-c3ccccc3)c(-c3ccccc3)c3ccccc32)cc1`, the TGI in the assay with NCI-H23 lung, in the assay on NCI-H460 lung, with SR leukemia, with UACC-257 melanoma, in the assay on SK-MEL-2 melanoma and with RPMI-8226 leukemia was above 100 µM throughout. Besides, the TGI in the assay with MOLT-4 leukemia, with HT29 colon and with A549 NSCLC was above 100 µM each time.

With `COc1cc(OC(=O)c2c(O)cc(O)c(O)c2C)cc(C)c1C(=O)Oc1cc(C)c(C(=O)O)c(O)c1`, the TGI in the assay with NCI-H23 lung, with NCI-H460 lung, in the assay with SR leukemia, with UACC-257 melanoma, in the assay with SK-MEL-2 melanoma and in the assay on RPMI-8226 leukemia was above 100 µM throughout. In addition, the TGI in the assay with MOLT-4 leukemia, with HT29 colon and with A549 NSCLC was above 100 µM each time.

On to `CC(=O)OC[C@]12CC[C@H]3[C@@H](C[C@H]4O[C@]45[C@@H](O)C=CC(=O)[C@]35C)[C@@H]1CC[C@@H]2[C@H](C)[C@H]1CC(C)=C(C)C(=O)O1`, for which the GI50 with NCI-H23 lung is 0.185 µM and 0.324 µM; with NCI-H460 lung, 0.588 µM and 1.07 µM; with SR leukemia it was 0.189 µM and 0.187 µM; in the assay on UACC-257 melanoma, 0.638 µM and 0.801 µM; with SK-MEL-2 melanoma it was 0.752 µM and 0.484 µM; in the assay on RPMI-8226 leukemia it was 0.26 µM and 0.107 µM. Also, the GI50 with MOLT-4 leukemia was 0.289 µM and 0.191 µM; in the assay on HT29 colon, 0.302 µM and 0.305 µM; in the assay with A549 NSCLC, 0.822 µM and 1.04 µM. The TGI with NCI-H23 lung was 0.371 µM and 0.858 µM; with NCI-H460 lung it was 3.53 µM; in the assay on SR leukemia, 0.617 µM and 0.631 µM; in the assay on UACC-257 melanoma, 2.69 µM; in the assay on SK-MEL-2 melanoma, 1.52 µM; in the assay with RPMI-8226 leukemia it was 0.846 µM and 0.446 µM. The TGI with MOLT-4 leukemia was 0.878 µM and 0.615 µM; with HT29 colon, 0.716 µM and 0.961 µM; with A549 NSCLC, 3.2 µM.

In the case of `CN(C)CCNC(=O)c1cccc(C(=O)Nc2ccccc2)c1[N+](=O)[O-]`, the TGI with NCI-H23 lung, with NCI/ADR-RES ovarian, with NCI-H460 lung, in the assay on SR leukemia, in the assay with UACC-257 melanoma and in the assay on SK-MEL-2 melanoma was above 100 µM each time. The TGI with MOLT-4 leukemia, in the assay with HT29 colon and in the assay with A549 NSCLC was above 100 µM each time.

With `COc1cc2oc(-c3ccc(O)cc3)cc(=O)c2c(OC)c1OC`, the TGI in the assay on NCI-H23 lung, in the assay with NCI/ADR-RES ovarian, in the assay on NCI-H460 lung, in the assay on SR leukemia, with UACC-257 melanoma and in the assay with RPMI-8226 leukemia was above 100 µM in each case. For the same compound, the TGI in the assay with MOLT-4 leukemia, in the assay on HT29 colon and in the assay with A549 NSCLC was above 100 µM each time.
